Measurements taken from article PMC8286840, “Identifying SARS-CoV-2 antiviral compounds by screening for small molecule inhibitors of Nsp3 papain-like protease” (Biochemical Journal, 2021).
Where a name gives a salt, the structure may show the parent alone. Read-outs that look alike come from different tables or passages of the source. Where a SMILES comes first, the peptide text is derived from it. [ ]: non-standard residue; d: D form. Nle = CCCC[C@H](N)C(=O)O

How the values were obtained:
[1] = target: T1, SARS-CoV-2 PLpro (nsp3 1564–1878) (Severe acute respiratory syndrome coronavirus 2, UniProt P0DTD1); assay: biochemical; parameters: FRET-quenched peptide (Pro3) cleavage by PLpro, 10 min pre-incubation, slope over 20 min, normalised to no-compound control; conditions: high concentration screen, read-out: % of control remaining
[2] = target: T1, SARS-CoV-2 PLpro (nsp3 1564–1878); assay: biochemical; parameters: FRET-quenched peptide (Pro3) cleavage by PLpro, 10 min pre-incubation, slope over 20 min, normalised to no-compound control; conditions: low concentration screen, read-out: % of control remaining

Q: Which remaining activity at 3.75 µM ([1]; Well no.=4504) does the source give for `CCCCCCCC/C=C\CCCCCCCCCCCCCC(=O)O` [15(Z)-Tetracosenoic acid] here?
A: 98.5%

Q: What about the remaining activity at 1.25 µM ([2]; Well no.=4504) of the same molecule?
A: 93.9%

Q: Which results are given for `CCCCCC(=O)/C=C/[C@H]1[C@H](O)CC(=O)[C@@H]1C/C=C\CCCC(=O)O` [15-keto-prostaglandin E2]?
A: remaining activity at 3.75 µM ([1]; Well no.=4485): 96.6%; remaining activity at 1.25 µM ([2]; Well no.=4485): 89%

Q: With `CCCCCC(=O)/C=C/[C@@H]1[C@@H](C/C=C\CCCC(=O)O)[C@@H](O)C[C@H]1O` [15-keto-prostaglandin F2a] as the molecule, how does the remaining activity at 3.75 µM ([1]; Well no.=4571) read?
A: 88.5%

Q: What about the remaining activity at 1.25 µM ([2]; Well no.=4571) of the same molecule?
A: 90.1%

Q: `CCCCC(C)(C)[C@H](O)/C=C/[C@H]1[C@H](O)CC(=O)[C@@H]1C/C=C\CCCC(=O)O` [16,16-Dimethyl-prostaglandin E2] was tested. Which remaining activity at 3.75 µM ([1]; Well no.=4517) did it give?
A: 99.3%

Q: What about the remaining activity at 1.25 µM ([2]; Well no.=4517) of the same molecule?
A: 96.1%

Q: How did the remaining activity at 3.75 µM ([1]; Well no.=3669) turn out when `C[C@@]12CCc3occc3[C@H]1CC[C@]13CC(=O)[C@H](CC[C@H]12)C3` [16-Oxocafestol] was run?
A: 91.5%

Q: And the remaining activity at 1.25 µM ([2]; Well no.=3669)?
A: 92.6%

Q: For `C[C@@]12C=Cc3occc3[C@H]1CC[C@]13CC(=O)[C@H](CC[C@H]12)C3` [16-Oxokahweol], which remaining activity at 3.75 µM ([1]; Well no.=3693) is on record?
A: 99%

Q: And the remaining activity at 1.25 µM ([2]; Well no.=3693)?
A: 94.8%

Q: Which remaining activity at 3.75 µM ([1]; Well no.=4351) does the source give for `C#CCCCCCCCCCCCCCCCC(=O)O` [17-Octadecynoic acid] here?
A: 104%

Q: And the remaining activity at 1.25 µM ([2]; Well no.=4351)?
A: 105%

Q: How did the remaining activity at 3.75 µM ([1]; Well no.=4533) turn out when `C[C@@H](O)CCC[C@H](O)/C=C/[C@H]1[C@H](O)CC(=O)[C@@H]1C/C=C\CCCC(=O)O` [19(R)-Hydroxy-prostaglandin E2] was run?
A: 88.8%

Q: And the remaining activity at 1.25 µM ([2]; Well no.=4533)?
A: 91.3%

Q: Which results are given for `O=C(O)CCCC/C=C\C[C@@H](O)/C=C/C=C/C=C\[C@@H](O)CCCC(=O)O` [20-Carboxy-leukotriene B4]?
A: remaining activity at 3.75 µM ([1]; Well no.=4427): 98.4%; remaining activity at 1.25 µM ([2]; Well no.=4427): 94.3%

Q: What does the source list for `O=C(O)CCC[C@H](O)\C=C/C=C/C=C/[C@H](O)C/C=C\CCCCCO` [20-Hydroxy-leukotriene B4]?
A: remaining activity at 3.75 µM ([1]; Well no.=4425): 103%; remaining activity at 1.25 µM ([2]; Well no.=4425): 101%

Q: How did the remaining activity at 3.75 µM ([1]; Well no.=4424) turn out when `C=C1CC[C@H](O)C/C1=C\C=C1/CCC[C@]2(C)[C@@H]([C@H](C)CC[C@@H](O)C(C)(C)O)CC[C@@H]12` [24(R),25-Dihydroxyvitamin D3] was run?
A: 88.6%

Q: And the remaining activity at 1.25 µM ([2]; Well no.=4424)?
A: 95.3%

Q: Which remaining activity at 3.75 µM ([1]; Well no.=6353) does the source give for `C[C@H](CCCC(C)(C)O)[C@H]1CC[C@H]2[C@@H]3CC=C4C[C@@H](O)CC[C@]4(C)[C@H]3CC[C@]12C` [25-Hydroxycholesterol] here?
A: 101%

Q: And the remaining activity at 1.25 µM ([2]; Well no.=6353)?
A: 101%

Q: What does the source list for `CO[C@H]1C[C@@H]2CC[C@@H](C)[C@@](O)(O2)C(=O)C(=O)N2CCCC[C@H]2C(=O)O[C@H]([C@H](C)C[C@@H]2CC[C@H](n3ncnn3)[C@H](OC)C2)CC(=O)[C@H](C)/C=C(\C)[C@@H](O)[C@@H](OC)C(=O)[C@H](C)C[C@H](C)/C=C/C=C/C=C/1C` [42-(2-Tetrazolyl)rapamycin]?
A: remaining activity at 3.75 µM ([1]; Well no.=7592): 91.6%; remaining activity at 1.25 µM ([2]; Well no.=7592): 91%

Q: What does the source list for `CC(N)=NCc1cccc(CN)c1` [1400W dihydrochloride]?
A: remaining activity at 3.75 µM ([1]; Well no.=1434): 90.8%; remaining activity at 1.25 µM ([2]; Well no.=1434): 88%

Q: How did the remaining activity at 3.75 µM ([1]; Well no.=1980) turn out when `Nc1ccn([C@H]2CC[C@@H](CO)O2)c(=O)n1` ["2',3' - Dideoxycytidine"] was run?
A: 102%

Q: And the remaining activity at 1.25 µM ([2]; Well no.=1980)?
A: 103%

Q: How did the remaining activity at 3.75 µM ([1]; Well no.=5795) turn out when `COc1cc(/C=C/C(=O)CC(=O)/C=C/c2ccc(O)cc2)ccc1O` [(1E,6E)-1-(4-hydroxy-3-methoxyphenyl)-7-(4-hydroxyphenyl)-1,6-heptadiene-3,5-dione] was run?
A: 95.2%

Q: What about the remaining activity at 1.25 µM ([2]; Well no.=5795) of the same molecule?
A: 90.1%

Q: Which results are given for `O=C(Nc1cc(Cl)cc(Cl)c1)[C@H]1CCCC[C@H]1C(=O)O` [(1R,2S)-VU0155041]?
A: remaining activity at 3.75 µM ([1]; Well no.=8475): 103%; remaining activity at 1.25 µM ([2]; Well no.=8475): 99%

Q: `CCCCCCCCCCCCCCCCCCc1ccc(C(=O)/C=C/C(=O)O)cc1` [(2E)-4-(4-octadecylphenyl)-4-oxo-2-butenoic acid] was tested. Which remaining activity at 3.75 µM ([1]; Well no.=5554) did it give?
A: 99.3%

Q: What about the remaining activity at 1.25 µM ([2]; Well no.=5554) of the same molecule?
A: 97.9%

Q: Which remaining activity at 3.75 µM ([1]; Well no.=5694) does the source give for `O=C(/C=C/c1cccnc1)NCCCCC1CCN(C(=O)c2ccccc2)CC1` [(2E)-N-[4-(1-benzoyl-4-piperidinyl)butyl]-3-(3-pyridinyl)-2-propenamide hydrochloride hydrate] here?
A: 92.8%

Q: What about the remaining activity at 1.25 µM ([2]; Well no.=5694) of the same molecule?
A: 97.8%

Q: With `CCOc1cc2ncc(C#N)c(Nc3ccc(F)c(Cl)c3)c2cc1NC(=O)/C=C/CN(C)C` [(2E)-N-[4-(3-chloro-4-fluoroanilino)-3-cyano-7-ethoxy-6-quinolinyl]-4-(dimethylamino)-2-butenamide] as the molecule, how does the remaining activity at 3.75 µM ([1]; Well no.=5707) read?
A: 102%

Q: And the remaining activity at 1.25 µM ([2]; Well no.=5707)?
A: 101%

Q: For `CCCOc1cc2c(cc1\C(C)=C/C=C/C(C)=C/C(=O)O)C(C)(C)CCC2(C)C` [(2E,4E,6Z)-3-methyl-7-(5,5,8,8-tetramethyl-3-propoxy-5,6,7,8-tetrahydro-2-naphthalenyl)-2,4,6-octatrienoic acid], which remaining activity at 3.75 µM ([1]; Well no.=6004) is on record?
A: 93%

Q: What about the remaining activity at 1.25 µM ([2]; Well no.=6004) of the same molecule?
A: 92.7%

Q: What does the source list for `CCN(C)C(=O)Oc1cccc([C@H](C)N(C)C)c1` [(2R,3R)-2,3-dihydroxybutanedioic acid compound with 3-[(1S)-1-(dimethylamino)ethyl]phenyl ethyl(methyl)carbamate (1:1)]?
A: remaining activity at 3.75 µM ([1]; Well no.=5811): 98%; remaining activity at 1.25 µM ([2]; Well no.=5811): 96.9%

Q: `O=C1c2c(O)cc(O)cc2O[C@H](c2cc(O)c(O)c(O)c2)[C@H]1O` [(2R,3R)-3,5,7-trihydroxy-2-(3,4,5-trihydroxyphenyl)-2,3-dihydro-4H-chromen-4-one] was tested. Which remaining activity at 3.75 µM ([1]; Well no.=5388) did it give?
A: 111%

Q: What about the remaining activity at 1.25 µM ([2]; Well no.=5388) of the same molecule?
A: 106%

Q: Which remaining activity at 3.75 µM ([1]; Well no.=5532) does the source give for `Nc1ncnc2c1nc(N)n2[C@@H]1O[C@H](CO)[C@@H](O)[C@H]1O` [(2R,3R,4S,5R)-2-(6,8-diamino-9H-purin-9-yl)-5-(hydroxymethyl)tetrahydrofuran-3,4-diol] here?
A: 105%

Q: And the remaining activity at 1.25 µM ([2]; Well no.=5532)?
A: 106%

Q: For `CC1CNc2c(cccc2S(=O)(=O)N[C@@H](CCCNC(=N)N)C(=O)N2CC[C@@H](C)C[C@@H]2C(=O)O)C1` (stereo partly drawn) [(2R,4R)-1-((2S)-5-{[amino(imino)methyl]amino}-2-{[(3-methyl-1,2,3,4-tetrahydro-8-quinolinyl)sulfonyl]amino}pentanoyl)-4-methyl-2-piperidinecarboxylic acid hydrate], which remaining activity at 3.75 µM ([1]; Well no.=5613) is on record?
A: 96.5%

Q: What about the remaining activity at 1.25 µM ([2]; Well no.=5613) of the same molecule?
A: 96%

Q: How did the remaining activity at 3.75 µM ([1]; Well no.=5774) turn out when `CCCC[C@@H](C=O)NC(=O)[C@H](CC(C)C)NC(=O)[C@H](CC(C)C)NC(C)=O` [(2S)-2-(acetylamino)-N-[(1S)-1-({[(1S)-1-formylpentyl]amino}carbonyl)-3-methylbutyl]-4-methylpentanamide] (Ac-Leu-Leu-[Nle]-aldehyde) was run?
A: 95.3%

Q: And the remaining activity at 1.25 µM ([2]; Well no.=5774)?
A: 95.7%

Q: Which remaining activity at 3.75 µM ([1]; Well no.=67) does the source give for `CC(C)C[C@H](NC(=O)[C@@H](O)[C@H](N)Cc1ccc([N+](=O)[O-])cc1)C(=O)O` [(2S,3R)-3-Amino-2-hydroxy-4-(4-nitrophenyl)butanoyl-L-leucine hydrochloride] here?
A: 104%

Q: And the remaining activity at 1.25 µM ([2]; Well no.=67)?
A: 106%

Q: `CCOC(=O)[C@H](CCc1ccccc1)N[C@@H](C)C(=O)N1CCC[C@H]1C(=O)O` [(2Z)-2-butenedioic acid compound with (2S)-1-((2S)-2-{[(1S)-1-(ethoxycarbonyl)-3-phenylpropyl]amino}propanoyl)-2-pyrrolidinecarboxylic acid (1:1)] was tested. Which remaining activity at 3.75 µM ([1]; Well no.=5659) did it give?
A: 101%

Q: What about the remaining activity at 1.25 µM ([2]; Well no.=5659) of the same molecule?
A: 102%
